Source: patent US6348614B1 (priority 1996, dated 2002)

What follows are compounds tested on P.infestans (A2 mating type, resistant to metalaxyl). Settings: Potato, 500 ppm, 6 days after inoculation.
Format: in vivo, Phytophthora infestans

Structure (SMILES) | Control efficacy (%) 6d [%]
CCCCCCCOC(=O)CC(C)NC(=O)c1ccc(OC)cc1 (stereo not shown) [compound 12, D,L N-4-methoxybenzoyl-3-aminobutyric acid heptyl ester] | 89
CCCCCCCOC(=O)CC(C)NC(=O)c1cc(C)cc(C)c1 (stereo not shown) [compound 13, D,L N-3,5-dimethylbezoyl-3-aminobutyric acid heptyl ester] | 84
CCCCCCCOC(=O)CC(C)NC(=O)c1c(F)cccc1F (stereo not shown) [compound 14, D,L N-2,6-difluorobenzoyl-3-aminobutyric acid heptyl ester] | 79
CCCCCCCOC(=O)CC(C)NC(=O)c1ccc(C(C)(C)C)cc1 (stereo not shown) [compound 15, D,L N-4-tertbutylbenzoyl-3-aminobutyric acid heptyl ester] | 79
CCCCC(C)OC(=O)CC(C)NS(=O)(=O)c1ccc(C)cc1 (stereo not shown) [compound 16, D,L N-4-methylbenzenesulfonyl-3-aminobutyric acid i-methylpentyl ester] | 79
CC(CC(=O)OCCCc1ccccc1)NS(=O)(=O)c1ccccc1 (stereo not shown) [compound 17, D,L N-benzenesulfonyl-3-aminobutyric acid 3-phenylpropyl ester] | 76
CCCCC(C)OC(=O)CC(C)NC(=O)c1ccc(Cl)cc1 (stereo not shown) [compound 18, D,L N-4-cholrobenzoyl-3-aminobutyric acid 1-methylpentyl ester] | 76
CC(CC(=O)OCCC(Cl)(Cl)Cl)NS(=O)(=O)c1ccccc1 (stereo not shown) [compound 19, D,L N-benzenesulfonyl-3-aminobutyric acid 2-(trichloromethyl)ethyl ester] | 75
CCC(C)OC(=O)CC(C)NS(=O)(=O)c1ccc(C)cc1 (stereo not shown) [compound 20, D,L N-4-methylbenzenesulfonyl-3-aminobutyric 1-methylpropyll ester] | 75
CCCC(C)OC(=O)CC(C)NC(=O)c1ccc(C)c(C)c1 (stereo not shown) [compound 21, D,L N-3,4-dimethylbezoyl-3-aminobutyric acid 1-methylbutyl ester] | 73
CCCCCCCOC(=O)CC(C)NC(=O)c1cccc(C)c1 (stereo not shown) [compound 22, D,L N-3-methylbezoyl-3-aminobutyric acid heptyl ester] | 70
CCCCCCCCOC(=O)CC(C)NC(=O)c1ccc(-c2cccs2)cc1 (stereo not shown) [compound 48, D,L N-4-2-thiophenebenzoyl-3-aminobutyric acid octyl ester] | 82
CCCCC(C)OC(=O)CC(C)NC(=O)c1ccc(-c2cccs2)cc1 (stereo not shown) [compound 49, D,L N-4-2-thiophenebenzoyl-3-aminobutyric acid 1-methylpentyl ester] | 75
CCCCC(C)OC(=O)CC(C)NS(=O)(=O)c1ccc(Cl)cc1 (stereo not shown) [compound 50, D,L N-4-chlorobenzensulfonyl-3-aminobutyric acid 1-methylpentyl ester] | 77
CC(CC(=O)OCCCc1ccccc1)NS(=O)(=O)c1ccccc1 (stereo not shown) [compound 51, D,L N-benzensulphonyl-3-aminobutyric acid 3-phenylpropyl ester] | 76
CCCCC(C)OC(=O)CC(C)NC(=O)c1ccccc1NC (stereo not shown) [compound 52, D,L N-2-methylaminobenzoyl-3-aminobutyric acid 1-methylpentyl ester] | 74
